Article PMC8054307 (The Journal of pharmacy and pharmacology, 2018)
“Also recorded” adds a separate entry of the source.

Assays:
[1] = tested on: cytochrome P450 (CYP450) enzyme system; settings: cited from earlier work
[2] = rat, in vivo, po; cited from earlier work
[3] = Pharmacokinetic study of CdG in rats after i.v. and p.o. administration; assay type: in vivo, Male Sprague-Dawley rats; settings: 1 mg/kg; for half-life: t1/2, rats
[4] = Pharmacokinetic study of CdG and ETV oral co-administration in rats; assay type: in vivo; settings: male, Sprague-Dawley, rat, plasma, 1 mg/kg
[5] = Tissue distribution of CdG to liver and kidney in rats; assay type: in vivo, Male Sprague-Dawley rats; settings: 9 h after i.v. or p.o. 1 mg/kg
[6] = Urinary excretion of CdG in rats; assay type: in vivo, Male Sprague-Dawley rats; settings: for amount of unchanged CdG accumulated in urine: 9 h after administration
[7] = Protein binding by ultrafiltration, human plasma; assay type: in vitro ADME; settings: pooled human plasma
[8] = target: human serum albumin (HSA) (Homo sapiens, UniProt P02768); experiment: Protein binding by ultrafiltration, HSA; assay type: in vitro ADME; settings: 600 μM HSA, CdG 500 ng/ml
Sequence of human serum albumin (HSA) (P02768 25-609): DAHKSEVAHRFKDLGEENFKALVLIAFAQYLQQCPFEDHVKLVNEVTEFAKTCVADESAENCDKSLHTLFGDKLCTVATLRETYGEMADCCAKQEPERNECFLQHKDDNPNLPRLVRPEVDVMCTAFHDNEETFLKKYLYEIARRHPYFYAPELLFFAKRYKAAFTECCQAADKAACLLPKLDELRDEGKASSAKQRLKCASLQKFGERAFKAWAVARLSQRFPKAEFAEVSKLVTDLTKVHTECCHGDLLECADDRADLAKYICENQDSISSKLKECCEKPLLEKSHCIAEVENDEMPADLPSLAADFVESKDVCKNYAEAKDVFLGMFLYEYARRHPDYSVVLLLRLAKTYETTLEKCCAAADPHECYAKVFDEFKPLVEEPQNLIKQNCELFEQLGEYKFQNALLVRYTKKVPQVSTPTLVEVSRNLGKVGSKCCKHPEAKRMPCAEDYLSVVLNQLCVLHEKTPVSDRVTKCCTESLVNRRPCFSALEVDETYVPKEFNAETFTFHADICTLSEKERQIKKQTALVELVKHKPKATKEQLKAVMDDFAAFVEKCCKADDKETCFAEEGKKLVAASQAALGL

[9] = tested on: human α1 acidic glycoprotein (AGP); experiment: Protein binding by ultrafiltration, AGP; assay type: in vitro ADME; settings: 45 μM AGP, CdG 500 ng/ml
[10] = tested on: cytochrome P450 (CYP450) enzyme system; experiment: Metabolism by CYP450; assay type: in vitro ADME; settings: data not shown
wild-type HBV [11] = settings: read-out: half-maximal inhibitory concentration (IC50); cited from earlier work
[12] = 2 days after administration; another study of the authors, ref not given; cited from earlier work
wild-type HBV [13] = settings: oral 0.02 mg/kg/day, hu-liver-chimeric mice; cited from earlier work
ETV-resistant HBV = settings: oral 0.02 mg/kg/day, hu-liver-chimeric mice; cited from earlier work
[14] = male, Sprague-Dawley, rat, plasma, iv
[15] = male, Sprague-Dawley, rat, plasma, po

C=C1[C@H](CO)[C@@H](O)C[C@@H]1n1cnc2c(=O)[nH]c(N)nc21 [ETV, entecavir]
substrate for the CYP450 enzyme system [1]: not a substrate
bioavailability [2]: approximately 78%

CC(C)(C)C(=O)OCOP(=O)(COCCn1cnc2c(N)ncnc21)OCOC(=O)C(C)(C)C [adefovir dipivoxil]
bioavailability [2]: approximately 50%

N#C[C@]1(CO)O[C@@H](n2cnc3c(=O)[nH]c(N)nc32)C[C@@H]1O [CdG, 4′-cyano-2′-deoxyguanosine]
AUC [3, 14]: 123 ± 28.1 ng·h/mL
MRT [3, 14]: 29.4 ± 3.6 min
Vd [3, 14]: 4.08 ± 0.62 L/kg
clearance [3, 14]: 141 mL/min/kg
half-life [3, 14]: 30 min
AUC [3, 15]: 90.1 ± 5.75 ng·h/mL
CL/F [3, 15]: 185 mL/min/kg
Cmax [3, 15]: 53.8 ± 8.63 ng/mL
MRT [3, 15]: 82.8 ± 7.2 min
Tmax [3, 15]: 45 min
half-life ([3]; male, Sprague-Dawley, rat, plasma, po, CdG alone): 42 min
time to reach undetectable plasma levels after administration ([3]; rats, i.v. and p.o.): ≤ 9 h
t1/2 ([3]; rats, p.o., CdG alone): 43.8 ± 7.2 min
Tmax [4]: 45 min
distribution to liver vs kidney [5]: higher levels of CdG were distributed to the liver than the kidney; also recorded: distributed to the liver rather than kidney
form excreted into the urine ([6]; LC/MS chromatographic profile of urine): unchanged form
urinary excretion, % of the given dose ([6]; i.v. 1 mg/kg, 9 h): 45%
amount of unchanged CdG accumulated in urine ([6]; i.v. 1 mg/kg): about 113 μg
amount of unchanged CdG accumulated in urine ([6]; p.o. 1 mg/kg): ~49 µg
fraction unbound at 500 ng/ml [7]: ~0.393
binding rate to HSA [8]: about 11.6 ± 0.01%
binding rate to AGP [9]: about 13.5 ± 0.01%
metabolism by CYP450 [10]: rarely metabolized by CYP450
IC50 (wild-type HBV [11]): 400 pM
amount accumulated in the urine, % of the given dose [12]: about 40%
replication of wild-type HBV (wild-type HBV [13]): significantly blocked
replication of ETV-resistant HBV (ETV-resistant HBV): significantly blocked
